# Data published in ChEMBL document CHEMBL1141596, “A new class of bradykinin B1 receptor antagonists with high oral bioavailability and minimal PXR activity” (Bioorg Med Chem Lett, 2008).
# Legend:
# B1 bradykinin receptor = molecular target: T1, B1 bradykinin receptor (Homo sapiens, UniProt P46663); assay: Binding affinity to human bradykinin B1 receptor expressed in rat CNS
# T1 sequence (P46663 whole entry): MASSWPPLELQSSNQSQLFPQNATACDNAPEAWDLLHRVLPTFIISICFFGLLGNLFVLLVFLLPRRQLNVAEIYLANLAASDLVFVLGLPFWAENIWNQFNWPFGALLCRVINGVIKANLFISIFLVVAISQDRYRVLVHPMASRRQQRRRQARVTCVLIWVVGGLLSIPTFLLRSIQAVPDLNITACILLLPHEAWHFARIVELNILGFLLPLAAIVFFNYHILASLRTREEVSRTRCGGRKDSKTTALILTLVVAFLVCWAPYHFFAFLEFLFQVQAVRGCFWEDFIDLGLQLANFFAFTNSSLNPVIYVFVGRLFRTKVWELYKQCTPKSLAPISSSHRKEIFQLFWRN
# [1] = Oral bioavailability in Mongrel dog at 3 mg/kg; type: ADME, organism-based, Canis lupus familiaris; details: in vivo
# [2] = molecular target: T2, PXR (Nuclear receptor subfamily 1 group I member 2) (Homo sapiens, UniProt O75469); assay: Reduction of PXR activation at 10 uM relative to rifampicin; design: scale not given: the % may be the effect or the level left; details: read-out: Activity
# T2 sequence (O75469 whole entry): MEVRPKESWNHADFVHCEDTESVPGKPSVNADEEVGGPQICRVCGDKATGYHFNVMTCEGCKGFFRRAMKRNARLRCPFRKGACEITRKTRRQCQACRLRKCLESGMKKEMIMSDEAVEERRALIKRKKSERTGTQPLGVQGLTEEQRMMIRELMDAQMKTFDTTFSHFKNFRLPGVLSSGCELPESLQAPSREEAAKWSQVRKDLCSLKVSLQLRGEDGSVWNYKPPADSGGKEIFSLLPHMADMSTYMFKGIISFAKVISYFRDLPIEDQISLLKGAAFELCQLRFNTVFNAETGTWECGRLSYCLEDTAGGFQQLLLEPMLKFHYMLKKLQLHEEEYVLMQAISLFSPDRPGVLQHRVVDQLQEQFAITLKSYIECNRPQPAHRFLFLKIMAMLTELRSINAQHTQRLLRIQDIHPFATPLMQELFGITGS
# [3] = Ratio of drug level in brain to plasma in african green monkey; type: ADME, organism-based; details: chlorocebus aethiops
# [4] = Oral bioavailability in Sprague-Dawley rat at 10 mg/kg; type: ADME, organism-based; details: in vivo
# [5] = Half life in rhesus monkey at 3 mg/kg, po or 1 mg/kg, iv; type: ADME, organism-based, Macaca mulatta; details: in vivo
# [6] = Half life in Mongrel dog at 1 mg/kg, iv; type: ADME, organism-based, Canis lupus familiaris; design: dose 1 mg/kg, route intravenous; details: in vivo
# [7] = Oral bioavailability in rhesus monkey at 3 mg/kg; type: ADME, organism-based, Macaca mulatta; details: in vivo
# [8] = molecular target: T3, B1 bradykinin receptor (Homo sapiens) (UniProt P46663); assay: Ex vivo receptor occupancy at bradykinin B1 receptor
# T3 sequence (whole entry): T1 sequence (P46663 whole entry)
# [9] = Clearance in rhesus monkey at 3 mg/kg, po or 1 mg/kg, iv; type: ADME, organism-based, Macaca mulatta; details: in vivo
# [10] = Half life in Sprague-Dawley rat at 10 mg/kg, po or 2 mg/kg, iv; type: ADME, organism-based; details: in vivo
# [11] = Clearance in Mongrel dog at 1 mg/kg, iv; type: ADME, organism-based, Canis lupus familiaris; design: dose 1 mg/kg, route intravenous; details: in vivo
# [12] = Clearance in Sprague-Dawley rat at 10 mg/kg, po or 2 mg/kg, iv; type: ADME, organism-based; details: in vivo
# [13] = Apparent permeability by cell based assay; type: ADME; details: not told
# [14] = Ratio of permeability from basolateral to apical over apical to basolateral side in P-gp expressing cells
SMILES,Ki (B1 bradykinin receptor),bioavailability [1],activity at 10 µM [2],Kp [3],bioavailability [4],half-life [5],half-life [6],bioavailability [7],Occ90 [8],clearance [9],half-life [10],clearance [11],clearance [12],Papp [13],Ratio [14]
CC(C)Oc1c(Cl)cc(Cl)cc1-c1ccc([C@@H](C)NC(=O)C2(NC(=O)C(F)(F)F)CC2)c(F)c1,2.3 nM,–,–,–,–,–,–,–,–,–,–,–,–,–,–
CCOc1c(Cl)cc(Cl)cc1-c1cnc([C@@H](C)NC(=O)C2(NC(=O)c3ccno3)CC2)c(F)c1,0.6 nM,55%,15%,1.4,7%,72 min,270 min,3%,380 nM,15 mL/min/kg,114 min,7 mL/min/kg,10 mL/min/kg,–,–
C[C@@H](NC(=O)C1(NC(=O)C(F)(F)F)CC1)c1ncc(-c2cc(Cl)cc(Cl)c2OCC(F)F)cc1F,1.5 nM,–,99%,–,–,–,1260 min,–,–,–,–,2.3 mL/min/kg,–,23 ×10⁻⁶ cm/s,–
CCc1cc(C(=O)NC2(C(=O)N[C@H](C)c3ncc(-c4cc(Cl)cc(Cl)c4OCC(F)F)cc3F)CC2)no1,1.9 nM,–,37%,–,–,–,270 min,–,–,–,–,14 mL/min/kg,–,25 ×10⁻⁶ cm/s,2
Cc1cc(C(=O)NC2(C(=O)N[C@H](C)c3ncc(-c4cc(Cl)cc(Cl)c4OCC(F)F)cc3F)CC2)no1,1.4 nM,21%,28%,0.9,30%,96 min,564 min,25%,940 nM,9.1 mL/min/kg,180 min,4.5 mL/min/kg,5.1 mL/min/kg,23 ×10⁻⁶ cm/s,1.5
C[C@@H](NC(=O)C1(NC(=O)C(F)(F)F)CC1)c1ccc(-c2cc(Cl)cc(Cl)c2OCC(F)(F)F)cc1F,1.8 nM,–,45%,–,35%,–,–,–,–,–,1620 min,–,1.1 mL/min/kg,6.3 ×10⁻⁶ cm/s,–
C[C@@H](NC(=O)C1(NC(=O)c2ccno2)CC1)c1ncc(-c2cc(Cl)cc(Cl)c2OCC(F)F)cc1F,0.4 nM,–,21%,–,–,–,240 min,–,–,–,–,5.9 mL/min/kg,–,29 ×10⁻⁶ cm/s,3.9
C[C@@H](NC(=O)C1(NC(=O)c2cc(Cl)no2)CC1)c1ncc(-c2cc(Cl)cc(Cl)c2OCC(F)F)cc1F,0.2 nM,–,68%,–,–,–,2040 min,–,–,–,–,2.6 mL/min/kg,–,26 ×10⁻⁶ cm/s,1.6
CCOc1cc(C(=O)NC2(C(=O)N[C@H](C)c3ncc(-c4cc(Cl)cc(Cl)c4OCC(F)F)cc3F)CC2)on1,1.1 nM,–,37%,–,–,–,810 min,–,–,–,–,3 mL/min/kg,–,25 ×10⁻⁶ cm/s,2.1
CCOc1c(Cl)cc(Cl)cc1-c1ccc([C@@H](C)NC(=O)C2(NC(=O)C(F)(F)F)CC2)c(F)c1,1.3 nM,–,62%,–,38%,–,–,–,–,–,450 min,–,11.5 mL/min/kg,18 ×10⁻⁶ cm/s,–
COC(=O)c1c(Cl)cc(Cl)cc1-c1ccc([C@@H](C)NC(=O)C2(NC(=O)c3cc(OC)no3)CC2)c(F)c1,0.4 nM,–,40%,–,–,–,–,–,–,–,–,–,–,–,5.1
C[C@@H](NC(=O)C1(NC(=O)c2cc(C3CC3)on2)CC1)c1ncc(-c2cc(Cl)cc(Cl)c2OCC(F)F)cc1F,2.6 nM,–,58%,–,–,–,414 min,–,–,–,–,13 mL/min/kg,–,18 ×10⁻⁶ cm/s,3.8
C[C@@H](NC(=O)C1(NC(=O)c2ccon2)CC1)c1ncc(-c2cc(Cl)cc(Cl)c2OCC(F)F)cc1F,1.2 nM,–,23%,–,–,–,1080 min,–,–,–,–,2 mL/min/kg,–,35 ×10⁻⁶ cm/s,1.8
CCOc1c(Cl)cccc1-c1ccc([C@@H](C)NC(=O)C2(NC(=O)C(F)(F)F)CC2)c(F)c1,0.9 nM,–,–,–,48%,–,–,–,–,–,114 min,–,16 mL/min/kg,29 ×10⁻⁶ cm/s,1.9
COc1cc(C(=O)NC2(C(=O)N[C@H](C)c3ncc(-c4cc(Cl)cc(Cl)c4OCC(F)F)cc3F)CC2)on1,0.5 nM,94%,8%,0.7,44%,372 min,1260 min,93%,540 nM,1.6 mL/min/kg,270 min,1.2 mL/min/kg,2.4 mL/min/kg,28 ×10⁻⁶ cm/s,2
CCOc1c(Cl)cc(Cl)cc1-c1cnc([C@@H](C)NC(=O)C2(NC(=O)C(F)(F)F)CC2)c(F)c1,1.5 nM,–,89%,2.2,8%,–,–,–,1450 nM,–,300 min,–,11.3 mL/min/kg,–,–
COC(=O)c1c(Cl)cc(Cl)cc1-c1ccc([C@@H](C)NC(=O)C2(NC(=O)C(F)(F)F)CC2)c(F)c1,0.4 nM,–,77%,–,–,–,96 min,–,–,11.2 mL/min/kg,–,20 mL/min/kg,–,–,–
C[C@@H](NC(=O)C1(NC(=O)C(F)(F)F)CC1)c1ccc(-c2cc(Cl)cc(Cl)c2OCC(F)F)cc1F,0.2 nM,–,95%,–,–,–,–,–,–,–,456 min,–,5.8 mL/min/kg,26 ×10⁻⁶ cm/s,–
C[C@@H](NC(=O)C1(NC(=O)C(F)(F)F)CC1)c1ccc(-c2cc(Cl)cc(Cl)c2OC(CF)CF)cc1F,0.9 nM,–,–,–,56%,–,–,–,–,–,300 min,–,1.6 mL/min/kg,28 ×10⁻⁶ cm/s,–
